In the data set the test system is isolated rat colonic mucosae. Put plainly: TEER and Papp of [14C]-mannitol in isolated rat colonic mucosae mounted in Ussing chambers. The class given is in vitro ADME.

Experimental: Ussing Chambers allow the measurement of transport molecules from the apical side of a section of intestinal tissue (rodent) to the basolateral, thereby simulating passage across the gut wall in vivo. […] Their ability to improve intestinal permeability was testing in isolated rat colonic mucosae by measurement of transepithelial electrical resistance (TEER) and permeability of [14C]-mannitol. The permeability of the marker molecule, radioactively labelled sugar ([C14]-Mannitol) was calculated by scintillation counting.
The transepithelial potential difference (PD, mV) is measured in the open circuit configuration after which the tissue is voltage clamped to zero PD by insertion of the required short circuit current (Isc, μA cm^−2) by means of an automatic voltage clamp (EVC-4000 amplifier, WPI, UK).
Isc and PD are alternatively monitored by switching to open circuit conditions for 3 s every 30 s using a timer (Pro-4, WPI, UK). Analogue data was digitised with a Powerlab® data acquisition unit and analyzed with Chart® software package (AD instruments, UK).
Following an equilibration period of 45 min, baseline PD and Isc are measured and TEER (Ω cm^2) is calculated according to Ohm's law.
Transport of radiolabelled mannitol from the apical chamber to the basolateral chamber was used to measure intestinal permeability.
Following addition of [^14C]-mannitol (0.2 μCi) to the apical chamber flux is monitored periodically over two hours by sampling the serosal chamber (100 μL) every 20 minutes for two hours, and apically (100 μL) at time zero, replenishing with fresh KH buffer at each sampling point.
Samples containing [^14C]-mannitol were mixed with scintillation fluid and read in a scintillation analyzer (Packard Tricarb 2900 TR).
The apparent permeability coefficient (Papp) for mannitol and FD4 is calculated according to the equation; Papp (cm/s)=(dQ/dt) (1/AC0), where dQ/dt is the transport rate (mol/s); A is the surface area of the monolayer (cm^2), and C0 is the initial concentration in the donor compartment (mol/mL).

In the case of `C[C@H](CCC(=O)NCCS(=O)(=O)O)[C@H]1CC[C@H]2[C@@H]3[C@H](O)C[C@@H]4C[C@H](O)CC[C@]4(C)[C@H]3C[C@H](O)[C@]12C` [TCA, taurocholic acid], the TEER result (10, 25 and 50 mg of TCA added to the encapsulation system) is reported as “reduced TEER”.

For cyanocobalamin [Vitamin B12], the “enhancement of mannitol flux” value (25 mg Vitamin B12 in encapsulation systems) turned out to be 11.5 fold. Besides, the TEER result (Vitamin B12 in encapsulation systems, over 2 hours) is listed as “significantly reduced TEER”.
